Data: patent US12350244B2, “MEK-inhibitor for the treatment of viral and bacterial infections” (priority 2019, dated 2025)
Like-named read-outs stand apart in the source and are kept apart here.

Tests used:
H1N1pdm09 = assay: Lung virus titration assay in mice (Example 11); type: in vivo, C57BL/6 mice; conditions: for virus titer in the lung (control set to 100%): 24 h after infection
Method: (A) After H1N1pdm09 infection female C57BL/6 mice were treated with either 2.8, 8.4 or 25 mg/kg PD-0184264 (left side) or with 25, 75 or 150 mg/Kg […] (left side) the oral route. 24 hrs after infection the animals were killed and lung was taken to prepare a 10% suspension. Virus titer was determined using the standard method. Virus titer of mice treated with the two MEK-inhibitors were compared to virus titer of mice treated with solvent (Control) alone. Virus tier in the lungs of control mice was set to 100% (black bar). Graphpad Prism 7 software was used to illustrate both figures.
For oral application of 25 mg/kg, 2.5 mg of PD-0184264 were dissolved in 50 μl DMSO (Sigma-Aldrich, Germany) and further diluted with 0.15 ml Cremophor EL (Merck-Millipore, Germany) and 0.8 ml PBS (Gibco, Germany). For application of 8.4 mg/kg and 2.8 mg/kg, 0.84 mg or 0.28 mg PD-0184264 were dissolved with 50 μl DMSO (Sigma-Aldrich, Germany) and further diluted with 0.15 ml Cremophor EL/0.8 ml PBS.
Eight week old female C57Bl/6 mice (Charles River Laboratories, Germany) with a body weight of 21.0-24.0 g at administration were used for antiviral studies. The animals were normally fed. Drinking water was available ad libitum.
Drugs were administrated using a single dosing on test day 1 by oral gavage. The application speed was 15 s per dose with an administration volume of 200 μl.
Mice were sacrificed 24 h post infection and lungs were weighed, transferred into a Lysing Matrix D tube (MP Bio) and BSS was applied in an amount of the 10-fold volume of the lung. Organs were shredded using the FastPrep FP 120 (Savant). To remove the cell debris the homogenates were centrifuged for 15 min at 2000 rpm and the supernatant collected. The determination of virus titer in homogenates was performed using the AVICEL® plaque assay as described previously (Haasbach et al. 2011, Mastrosovich et al. 2006).

influenza virus = conditions: mouse model, cited from earlier work; for effect of treatment started late post infection: 48 h or more post infection, previous studies
S. aureus 6850 [1] = assay: Over-night treatment, bacterial titers (CFU/ml), strain 6850; type: cell-based, Staphylococcus aureus; conditions: for effect on bacterial titers: over-night treatment, concentrations as indicated in figures
MRSA strain USA300 [2] = assay: Over-night treatment, bacterial titers (CFU/ml), MRSA USA300; type: cell-based, Staphylococcus aureus; conditions: for effect on bacterial titers: over-night treatment, concentrations as indicated in figures
S. aureus = assay: Resistance development under constant treatment for 17 days; type: cell-based, Staphylococcus aureus; conditions: 24 h cycles repeated for 17 days
[3] = test system: strain A/Regensburg/D6/2009 Influenza H1N1pdm09; assay: Survival of infected mice with late start of treatment; type: in vivo, C57BL/6 mice; conditions: 25 mg/kg oral BID
[4] = test system: influenza virus strain A/Regensburg/D6/2009, (RB1, H1N1pdm09); assay: Lung virus titer in influenza-infected mice (Example 1); type: in vivo, C57BL/6 mice
Method: 8 weeks old C57BL/6 mice (five per group) were infected with 1.5×10^5 PFU (5×MLD50) of the influenza virus strain A/Regensburg/D6/2009, (RB1, H1N1pdm09). […] All animals received a volume of 200 μl per os. Mice were sacrificed 24 h post infection and lungs were weighed, transferred into a Lysing Matrix D tube (MP Bio) and BSS (buffered salt solution) in an amount of the 10-fold volume of the lung was applied to the samples. Organs were shredded using the FastPrep FP 120 (Savant). To remove the cell debris the homogenates were centrifuged for 15 min at 2000 rpm and the supernatant collected. The determination of virus titer in homogenates was performed using the AVICEL® plaque assay. Results are presented in FIG. 1 as virus titer (log 10) pfu/ml (left) or % virus titer (right). Virus titer was determined by two investigators independently. Mean values from all titrations were presented.

[5] = test system: A549 cells infected with IAV (H1N1) and/or S. aureus 6850; type: cell-based
MRSA strain USA300 [6] = assay: Bacterial growth under heat stress, MRSA USA300; type: cell-based, Staphylococcus aureus; conditions: 20 μM over night, then 42° C. for 6 h
Method: (§1) As the kinase is known to play an important role in bacterial stress resistance, bacterial growth under heat stress was monitored after treatment of the bacteria with the inhibitor PD-0184264. S. aureus strain 6850 and MRSA strain USA300 were treated over night with either solvent or 20 μM of the PD-0184264. The next day subcultures with the same amount of bacteria were prepared (confirmed by OD600 and plating on BHI agar) and further incubated at 42° C. for 6 h. Bacterial titers were then calculated via plating of serial dilutions on BHI agar plates. […] This is both observed for the methicillin-sensitive strain 6850 (black bars) as well as for the MRSA strain USA300 (grey bars). Impaired stress tolerance in the presence of the inhibitor is another indication that PD-0184264 directly targets the kinase PknB, which is an important mediator of stress resistance. In summary, the data provide strong circumstantial evidence, that PD-0184264 elicits its antibacterial action by inhibition of the bacterial kinase PknB.

A549 cells [7] = assay: A549 cell viability (trypan blue) and LDH release; type: cell-based, human; conditions: 1, 5, 10, 20, 50 or 100 μM, 24 or 48 hours
Method: To rule out that the reduction in viral and intracellular bacterial replication was a result of a cytotoxic effect of PD-0184264 on A549 cells, cell viability in presence of increasing concentrations was monitored for 24 and 48 hours. Additionally, a LDH-Assay was performed to determine membrane rupture due to inhibitor treatment. […] A549 cells were treated for 24 (as shown in FIGS. 15A and C) or 48 (as shown in FIGS. 15B and D) hours with increasing concentrations of PD-0184264 (1, 5, 10, 20, 50 or 100 μM). After the incubation times, supernatants were taken for measurement of LDH release (shown in FIGS. 15C, D) using the CytoSelect LDH Cytotoxicity Assay Kit according to the manufacturer's instructions. Additionally, viable cells were counted by staining with trypan blue. Cell viability was normalized to DMSO-treated cells and is shown as % viability. […] Statistical significance was calculated by one-way ANOVA followed by Dunnett's multiple comparisons test (* p<0.05; ** p<0.01; 27 *** p<0.001).

A549 cells [8] = assay: WST-assay; type: cell-based, human; conditions: 24 h, FIG. 17C
Method: A549 cells were seeded in a 96-well flat-bottom tissue plate (Greiner, Germany) and were grown overnight. […] Thereafter, 10 μl WST-1 reagent (Roche, Germany) was added to the culture medium and incubated for four hours. During this time, the stable tetrazolium salt WST-1 was cleaved to a soluble formazan by metabolically active cells in the culture. After this incubation period, the formazan dye formed was quantitated with ELISA reader at 405 nm. The measured absorbance directly correlated to the number of viable cells.

S. aureus strain 6850 = assay: Bacterial growth under heat stress, strain 6850; type: cell-based, Staphylococcus aureus; conditions: 20 μM over night, then 42° C. for 6 h
Method: as §1

[9] = test system: Streptococcus pneumoniae strains TIGR4 (serotype 4) and D39 wt (serotype 2); assay: Growth of Streptococcus pneumoniae (OD600, CFU/ml); type: cell-based; conditions: over-night treatment, different concentrations
Method: Additionally, these kinases share high homology to cellular MAP kinases (e.g. ERK, JNK, p38). […] Thus, the impact of PD-0184264 on different strains of Streptococci pneumonia was analyzed. Streptococcus pneumoniae strains can be divided into different serotypes, which differ in their virulence and overall pathogenicity. To test for a serotype- or strain-independent effect, we used the encapsulated strains D39 and TIGR4, which are both virulent, but belong to different serotypes. […] Then, the OD600 was measured again (Results shown in FIG. 11A) and dilution series were objected to BHI agar plates to determine bacterial titers (Results shown in FIG. 11B).

S. aureus 6850 [10] = assay: Time-of-addition assay, bacterial growth; type: cell-based, Staphylococcus aureus

Molecule: O=C(NOCC1CC1)c1ccc(F)c(F)c1Nc1ccc(I)cc1Cl [CI-1040, 2-(2-chloro-4-iodophenylamino)-N-(cyclopropylmethoxy)-3,4-difluoro benzamide, reference compound]
- doses showing any effect in reduction of virus titer (H1N1pdm09; oral, 25, 75 or 150 mg/kg tested): ≥ 75 mg/kg
- treatment window post infection (influenza virus; Haasbach et al. 2017 and further experiments of the applicant): at least 48 h
- effect on bacterial titers (S. aureus 6850 [1]): effective

Molecule: N#CC(=C(/N)Sc1ccccc1N)/C(C#N)=C(\N)Sc1ccccc1N [U0126]
- effect on bacterial titers (MRSA strain USA300 [2]): minor reduction in bacterial titers
- effect on bacterial titers (S. aureus 6850 [1]): minor reduction in bacterial titers

Molecule: O=C(O)c1ccc(F)c(F)c1Nc1ccc(I)cc1Cl [PD-0184264, 2-(2-chloro-4-iodophenylamino)-N-3,4-difluoro benzoic acid]
- virus titer in the lung (control set to 100%) (H1N1pdm09; 2.8 mg/kg oral): approx. 70%
- virus titer in the lung (control set to 100%) (H1N1pdm09; 8.4 mg/kg oral): approx. 20%
- virus titer in the lung (control set to 100%) (H1N1pdm09; 25 mg/kg oral): approx. 10%
- resistance development (S. aureus): did not induce resistance
- effect on bacterial titers (MRSA strain USA300 [2]): very strong reduction in bacterial load
- mice protected (survival) ([3]; treatment started 24 hours after infection): six out of eight
- mice protected (survival) ([3]; treatment started 48 hours after infection): five out of eight
- mice protected (survival) ([3]; treatment started 72 hours after infection): two out of eight
- virus titer in the lung, effect compared with CI-1040 ([4]; 25 mg/kg PD-0184264 per os in an 8 h interval, 24 h post infection, FIG. 1): same effect as 150 mg/kg CI-1040
- efficacy in vivo by oral administration ([4]; 25 and 75 mg/kg per os): effective
- concentration at which reduction of the cytopathic effect is already shown ([5]; co-infection, FIG. 5): 15 µM
- cytopathic effect (CPE), cell monolayer ([5]; increasing concentrations, 24 h, IAV H1N1 MOI 0.001 and S. aureus 6850 MOI 0.1): reversed in a concentration dependent manner
- bacterial growth under heat stress (MRSA strain USA300 [6]): strongly impaired
- cell toxicity (viability, LDH release) (A549 cells [7]): does not induce cell toxicity
- CC50 (A549 cells [8]): > 1580 µM
- bacterial growth under heat stress (S. aureus strain 6850): strongly impaired
- bacterial growth (S. aureus 6850 [1]; 10 μM, FIG. 4 (strains 6850 and USA300)): significant reduction of growth
- effect on bacterial titers (S. aureus 6850 [1]): very strong reduction in bacterial load
- sensitivity of both serotypes (OD600, bacterial titers) [9]: sensitive
- inhibition of bacterial growth compared with all other compounds (S. aureus 6850 [10]; 0, 3 h and 6 h post inoculation, versus U0126 and gentamicin 0.5 or 2 μg/ml): strongest inhibition of bacterial growth
- mode of antibacterial action (S. aureus 6850 [10]; after medium exchange and incubation without substances): bacteriostatic rather than a bactericidal action

Molecule: CCOC(=O)C1=C[C@@H](OC(CC)CC)[C@H](NC(C)=O)[C@@H](N)C1 [oseltamivir]
- effect of treatment started late post infection (influenza virus): no longer effective
- effect of treatment started late post infection (influenza virus; listed as Tamiflu): no effect

Molecule: Gentamicin
- resistance development (S. aureus): resistance development occurred during the first week of treatment
- bacterial titers (MRSA strain USA300 [2]; 0.5 μg/ml, over night): no reduction in bacterial titers
- bacterial titers (S. aureus 6850 [1]; 0.5 μg/ml, over night): no reduction in bacterial titers

Molecule: CC[C@H]1OC(=O)[C@H](C)[C@@H](O[C@H]2C[C@@](C)(OC)[C@@H](O)[C@H](C)O2)[C@H](C)[C@@H](O[C@@H]2O[C@H](C)C[C@H](N(C)C)[C@H]2O)[C@](C)(O)C[C@@H](C)C(=O)[C@H](C)[C@@H](O)[C@]1(C)O [Erythromycin]
- resistance development (S. aureus): readily develop resistances
